Results taken from patent publication US11524040B2, “Composition for the treatment of acne” (priority 2020, dated 2022).

Legend:
Interleukin-6 (IL-6) = assay: Interleukin-6 expression in keratinocytes; assay type: cell-based, human; conditions: 24-hour treatment, CBD isolate at same concentration as present in the invention
Description: (§1) In a study using human primary keratinocytes, two formulations were analyzed, Natural Blemish Light Lotion (NB) and Natural Blemish OTC Lotion (OTC) for unique properties. All the following experiments include a 24-hour treatment of the finished products used in the dilutions shown and were analyzed by quantitative polymerase chain reaction (qPCR).
Interleukin-6 (IL-6) is a well-established marker for inflammation. Largely produced in the skin by keratinocytes, its production leads to the activation of the STAT3 pathway which has been linked to the pathogenesis of many inflammatory skin diseases (Activation of Janus kinase signaling pathway in acne lesions, Sara Mohamed Awad, Yasmin Mostafa Tawfik, Mohamed Ahmed El-Mokhtar, Amira F. El-Gazzar, Amira Ali Abdel Motaleb First published: 19 Nov. 2020 https://doi.org/10.1111/dth.14563). In addition, IL-6 exerts stimulatory effects on T-cells and B-cells, thus favoring chronic inflammatory responses. (Gabay C. Interleukin-6 and chronic inflammation. Arthritis Res Ther. 2006; 8 Suppl 2(Suppl 2):S3. doi:10.1186/ar1917). […] That is, the compositions work better to reduce expression of IL-6 than the individual ingredients, namely CBD alone.

[1] = test system: Tumor necrosis factor (TNF-α); assay: TNF-α production in human primary sebocytes; assay type: cell-based; conditions: human primary sebocytes in vitro; CBD isolate at same concentration as present in the invention
Description: as §1
(§2) Because sebum production is a major factor in the pathophysiology of acne vulgaris, experiments were performed using human primary sebocytes isolated from the eye area. The main function of sebocytes is considered to be the production of lipids to moisturize the skin. However, it recently became apparent that sebocytes release chemokines and cytokines and respond to proinflammatory stimuli as well as the presence of bacteria. (Attii M, Lovászi M, Garzorz N, Atenhan A, Quaranta M, Lauffer F, Konstantinow A, Küpper M, Zouboulis C C, Kemeny L, Eyerich K, Schmidt-Weber C B, Töröcsik D, Eyerich S. Sebocytes contribute to skin inflammation by promoting the differentiation of T helper 17 cells. Br J Dermatol. 2018 March; 178(3):722-730. doi: 10.1111/bjd.15879. Epub 2018 Jan. 9. PMID: 28799643). The overproduction of sebum, proinflammatory chemokines and cytokines released from sebocytes all contribute to the formation of comedones on the skin. Both OTC and NB were studied as well as AP to investigate the efficacy of these products. […]

Fox-01 = assay: FOX-01 expression in human primary sebocytes; assay type: cell-based; conditions: 100 ug/mL
Description: as §1, §2

C=C(C)[C@@H]1CCC(C)=C[C@H]1c1c(O)cc(CCCCC)cc1O [CBD isolate, Cannabidiol]
reduction of expression of IL-6 (Interleukin-6 (IL-6)): 6.0%
lowered production of TNF-α [1]: 14.0%
increase of Fox-01 expression (Fox-01): 50.8%
